Test results as given in patent US20140038889A1, “Modulators Of The GPR119 Receptor And The Treatment Of Disorders Related Thereto” (ARENA PHARMACEUTICALS, INC., priority 2011, published 2014).
Converted amounts (≈) assume the structure as drawn. “Also recorded” adds a separate entry of the source. Structures can show the parent of a compound that is named as a salt.

Columns and labels:
Male SD rats = test: Gastric emptying in male SD rats (stomach content 6 h post-dosing); type: in vivo; details: SD rats, 3, 10 or 30 mg/kg orally
Procedure: Male SD rats were fasted for 18 h and randomly grouped (n=5). Fasted rats were allowed to access food for 30 min, and the amount of food consumed was recorded for each rat. At the end of the 30 min food intake, rats were put in cages without food and water, and dosed with Compound 1 at 3, 10, or 30 mg/kg, or vehicle control (20% HPCD) orally, or with exendin-4 (Ex-4) at 100 μg/kg i.p. Six hours post-dosing, rats were euthanized with CO2, and stomach content was determined.

Male 129SVE mice [1] = test: GIP release in male 129SVE mice (plasma total GIP, ELISA); type: in vivo; details: 3 or 30 mg/kg p.o., 45 min
Procedure: Male 129SVE mice (approximately 8 weeks old) were fasted for 18 h and randomly grouped (n=6) to receive a GPR119 agonist (Compound 1) at 3 or 30 mg/kg body weight. Compound 1 was delivered orally via a gavage needle (4 mL/kg), and after 45 min, a blood sample was collected to determine plasma total GIP levels. A separate control group received vehicle (PET (80% PEG:10% Ethanol:10% Tween80™)). Plasma GIP levels were determined using a GIP (total) ELISA kit from Millipore.

Solubility of Compound 1 = type: physicochemical
Procedure: To a solution of 5-fluoro-4-(2-methyl-6-(methylsulfonyl)pyridin-3-yloxy)-6-(piperidin-4-yloxy)pyrimidine hydrochloride (200 mg, 0.477 mmol) and 2,5-dioxopyrrolidin-1-yl 1-methylcyclopropyl carbonate (247 mg, 1.16 mmol) in DCM (3.5 mL) was added triethylamine (0.333 mL, 2.387 mmol). The reaction mixture was stirred at room temperature for 2 h. The mixture was concentrated under reduced pressure and the residue was purified by silica gel flash column chromatography to give the title compound as a white solid (183 mg, 80% yield). Exact mass calculated for C21H25FN4O6S: 480.15. found: LCMS m/z=481.2 [M+H]^+; ^1H NMR (400 MHz, CDCl3) δ ppm 0.63-0.66 (m, 2H), 0.87-0.90 (m, 2H), 1.56 (s, 3H), 1.82-1.84 (m, 2H), 2.02-2.04 (m, 2H), 2.55 (s, 3H), 3.35 (s, 3H), 3.28-3.37 (m, 2H), 3.78-3.79 (m, 2H), 5.36-5.40 (m, 1H), 7.68 (d, J=12 Hz, 1H), 8.01 (d, J=8 Hz, 1H), 8.07 (s, 1H). Solubility: <0.001 mg/mL (H2O); 2.758 mg/mL (20% HPCD).

Male 129SVE mice [2] = test: Oral glucose tolerance test (oGTT) in male 129SVE mice; type: in vivo; details: for Plasma Glucose, Mean: n=6
Procedure: Male 129SVE mice (approximately 8 weeks old) were fasted for 18 h and randomly grouped (n=6) to receive a GPR119 agonist (Compound 1) at 3, or 10 mg/kg body weight. Compound 1 was delivered orally via a gavage needle (p.o., volume at 4 mL/kg) 30 minutes prior to glucose bolus (3 g/kg) (time=−30 min in FIG. 1), with a separate group receiving vehicle (20% hydroxypropyl-beta-cyclodextrin (HPCD) as a control. At time 0 min the glucose bolus was administered. Levels of blood glucose were assessed using a glucometer (One-Touch Ultra™, LifeScan) at time −30 min (prior to compound administration), at 0 min (when the glucose bolus was given), and at 20, 40, 60, 120 min post glucose bolus. The plasma glucose level (Table A) and glucose excursion curve (FIG. 1) are shown. Glucose excursion reduction (area under the curve (AUC)) in compound-treated animals relative to vehicle control is shown in FIG. 2.

GPR119 receptor = biological target: T1, GPR119 receptor (Homo sapiens, UniProt Q8TDV5); test: HTRF cAMP detection assay in CHO-K1 cells stably expressing the GPR119 receptor; type: cell-based
T1 construct: expressed in transfected cells
T1 sequence (Q8TDV5 2-335): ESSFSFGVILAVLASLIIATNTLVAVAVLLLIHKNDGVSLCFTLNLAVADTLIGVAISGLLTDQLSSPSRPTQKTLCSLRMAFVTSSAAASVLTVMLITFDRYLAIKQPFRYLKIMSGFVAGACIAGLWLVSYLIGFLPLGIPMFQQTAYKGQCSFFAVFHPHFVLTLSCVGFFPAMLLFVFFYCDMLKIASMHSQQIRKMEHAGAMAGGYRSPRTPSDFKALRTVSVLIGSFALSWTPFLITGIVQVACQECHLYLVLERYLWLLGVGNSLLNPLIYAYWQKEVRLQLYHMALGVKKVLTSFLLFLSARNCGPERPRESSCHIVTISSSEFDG
Procedure: GPR119 agonist, Compound 1, was evaluated in an HTRF® cAMP detection assay (Cisbio, cAMP Dynamic 2 Assay Kit; #62AM4PEJ) according to the manufacturer's instructions using CHO-K1 cells stably expressing the GPR119 receptor. CHO-K1 cells were transduced with a lentiviral vector encoding the nucleotide sequence of GPR119 (NCBI mRNA and protein reference sequences: NM_178471.2 & NP_848566). The N-terminus of the GPR119 nucleotide sequence was modified to replace the first, methionine-coding, codon with a nucleotide sequence coding for a standard, nine amino acid, hemagglutinin tag. Following transduction, cells expressing the GPR119 receptor were isolated and a single clone was isolated following standard dilution-cloning procedures. On the day of the assay, cultured CHO-GPR119 cells were harvested, suspended in assay buffer and plated into 384-well assay plates (PerkinElmer® Proxiplate® #6008280) at a density of 2,000 cells per well. A cAMP standard curve was added to each plate. Compound 1 was dissolved in DMSO, serially diluted in DMSO and then diluted in assay buffer before addition to the cells. Compound 1 was evaluated in triplicate, using 10-point, 5-fold serial dilutions starting at 10 μM. […] Plates were then incubated at room temperature for 1 h prior to reading. Time-resolved fluorescence measurements were collected on PerkinElmer Envision™ or BMG Pherastar™ microplate readers. […]

Male ZDF rats = test: Oral glucose tolerance test (oGTT) in male ZDF rats; type: in vivo; details: for % Inhibition of Glucose Excursion: AUC relative to vehicle control, ZDF rats
Procedure: Male ZDF rats were fasted for 18 h and randomly grouped (n=6) to receive the GPR119 agonist Compound 1(3 or 10 mg/kg), the control compound, Januvia (3 mg/kg), or a combination of Compound 1(3 mg/kg) and Januvia (3 mg/kg). The compounds were delivered orally via a gavage needle (p.o., volume 4 mL/kg) 60 min prior to glucose bolus (3 g/kg) (time=−60 min in FIG. 4), with a separate group receiving vehicle (20% hydroxypropyl-beta-cyclodextrin (HPCD)) as control. At time 0 min, a glucose bolus was administered. Levels of blood glucose were assessed using a glucometer (One-Touch Ultra™, LifeScan) at time −60 min (prior to compound administration), at 0 min (at time when glucose bolus was given), and at 30, 60, 90, and 120 min post glucose bolus. The plasma glucose excursion curve (FIG. 4) is shown.

humans = details: human studies, infusion, over 24 hours; cited from earlier work
[3] = 3 mg/kg p.o. 60 min prior to glucose bolus (3 g/kg)

In the case of `Cc1nc(S(C)(=O)=O)ccc1Oc1ncnc(OC2CCN(C(=O)OC3(C)CC3)CC2)c1F` [Compound 1, 1-methylcyclopropyl 4-(5-fluoro-6-(2-methyl-6-(methylsulfonyl)pyridin-3-yloxy)pyrimidin-4-yloxy)piperidine-1-carboxylate], the “Effect on gastric emptying (in words)” value (Male SD rats) is reported as “had an effect on gastric emptying at high dosage (30 mg/kg), but that effect was less pronounced than the positive control, Ex-4”, the “Release of GIP (plasma total GIP, in words)” value (Male 129SVE mice [1]) is reported as “stimulates the release of GIP” and the solubility (Solubility of Compound 1; 20% HPCD, aqueous with cosolvent or surfactant or cyclodextrin) is reported as 2760 µg/mL (≈ 5.74 mM). For the same compound, the solubility (Solubility of Compound 1; water, H2O) was under 1 µg/mL, the “Plasma Glucose, Mean” value (Male 129SVE mice [2]; 3 mg/kg p.o., 0 min relative to glucose bolus) was 92.0 mg/dL and the “Plasma Glucose, Mean” value (Male 129SVE mice [2]; 3 mg/kg p.o., 20 min post glucose bolus (3 g/kg)) was 207.0 mg/dL. For the same compound, the “Plasma Glucose, Mean” value (Male 129SVE mice [2]; 3 mg/kg p.o., 40 min post glucose bolus (3 g/kg)) was 280.6667 mg/dL, the “Plasma Glucose, Mean” value (Male 129SVE mice [2]; 3 mg/kg p.o., 60 min post glucose bolus (3 g/kg)) was 248.8333 mg/dL and the “Plasma Glucose, Mean” value (Male 129SVE mice [2]; 3 mg/kg p.o., 120 min post glucose bolus (3 g/kg)) was 161.8333 mg/dL. For the same compound, the “Plasma Glucose, Mean” value (Male 129SVE mice [2]; 3 mg/kg p.o., -30 min relative to glucose bolus (prior to compound administration)) was 75.17 mg/dL, the “Plasma Glucose, Mean” value (Male 129SVE mice [2]; 10 mg/kg p.o., 0 min relative to glucose bolus) was 94.5 mg/dL and the “Plasma Glucose, Mean” value (Male 129SVE mice [2]; 10 mg/kg p.o., 20 min post glucose bolus (3 g/kg)) was 190.3333 mg/dL. The “Plasma Glucose, Mean” value (Male 129SVE mice [2]; 10 mg/kg p.o., 40 min post glucose bolus (3 g/kg)) was 229.6667 mg/dL, the “Plasma Glucose, Mean” value (Male 129SVE mice [2]; 10 mg/kg p.o., 60 min post glucose bolus (3 g/kg)) was 199.6667 mg/dL and the “Plasma Glucose, Mean” value (Male 129SVE mice [2]; 10 mg/kg p.o., 120 min post glucose bolus (3 g/kg)) was 150.6667 mg/dL. For the same compound, the “Plasma Glucose, Mean” value (Male 129SVE mice [2]; 10 mg/kg p.o., -30 min relative to glucose bolus (prior to compound administration)) was 71.5 mg/dL, the “Effect on blood glucose after challenge with glucose (in words)” value (Male 129SVE mice [2]; male 129SVE mice, 3 or 10 mg/kg p.o.) was “lowered blood glucose” and the “Effect on plasma glucose levels in oGTT (in words)” value (Male 129SVE mice [2]; male 129SVE mice, dose of 10 mg/kg) was “significantly reduced plasma glucose levels”. The “Agonist activity at GPR119 (in words)” value (GPR119 receptor) was “potent and selective agonist; also recorded: full agonist”, the EC50 (GPR119 receptor; CHO-K1 cells stably expressing GPR119, 1 h incubation) was 14.9 nM and the “% Inhibition of Glucose Excursion” value (Male ZDF rats; [3]) was 14.8%. The “% Inhibition of Glucose Excursion” value (Male ZDF rats; 10 mg/kg p.o. 60 min prior to glucose bolus (3 g/kg)) was 26.2% and the “Effect on blood glucose after a challenge with glucose (in words)” value (Male ZDF rats; diabetic ZDF rats, 3 or 10 mg/kg p.o.) was “lowered blood glucose”.
For `N[C@@H](CC(=O)N1CCn2c(nnc2C(F)(F)F)C1)Cc1cc(F)c(F)cc1F` [Januvia, dihydrogenphosphate salt of 3(R)-amino-1-[3-(trifluoromethyl)-5,6,7,8-tetrahydro[1,2,4]triazolo[4,3-a]pyrazin-7-yl]-4-(2,4,5-trifluorophenyl)butan-1-one, reference compound], the “% Inhibition of Glucose Excursion” value (Male ZDF rats; [3]) was 57.0%.
For “PYY3-36: form of Peptide YY generated from PYY1-36 by cleavage of the N-terminal Tyr and Pro residues by DPP-IV”, the “Reduction of food intake” value (humans) is given as 33%.
